Consider six compounds from ChEMBL document CHEMBL5344448, “Amide Alkaloids as Privileged Sources of Senomodulators for Therapeutic Purposes in Age-Related Diseases” (J Nat Prod, 2024).

In one assay the test system is WI-38. Description: Induction of senescence in human WI-38 cells. Format: functional, cell-based.
The nature of assay [1]: Inhibition of rat liver microsome ACAT. It counts as microsomes. On the technique in general: Liver microsomes are vesicles of endoplasmic reticulum, rich in cytochrome P450 enzymes.

The IC50 is the point on the concentration scale where inhibition reaches its midpoint. `O=C(/C=C/C=C/CC/C=C/c1ccc2c(c1)OCO2)N1CCCCC1` [DEHYDROPIPERNOLINE]: the IC50 in the assay with WI-38 came to 2.1 µM; in assay [1], 90 µM.
For the compound `CC(C)CNC(=O)/C=C/C=C/CCCCCC/C=C/c1ccc2c(c1)OCO2` [GUINEENSINE], the values for the IC50 (in the assay with WI-38; in assay [1]) were 8.9 µM and 3 µM, respectively.
With `CCCCC/C=C/C=C/C(=O)NCC(C)C` [PELLITORIN], half-maximal inhibition in the assay on WI-38 (IC50) required 0.67 µM. This counts as sub-micromolar.
In the assay with WI-38, `O=C(/C=C/C=C/c1ccc2c(c1)OCO2)N1CCCCC1` [PIPERINE] came in with an IC50 of 8.8 µM.
With `COc1cc(/C=C/C(=O)N2CCC=CC2=O)cc(OC)c1OC` [PIPLARTINE], the half-inhibitory concentration (IC50) in the assay on WI-38 is 8 µM.
Still for that read-out and setting: the value for `CC(C)CNC(=O)/C=C/C=C/CCCC/C=C/c1ccc2c(c1)OCO2` [RETROFRACTAMIDE B] was 2 µM.
